Experimental data as given in US20110136727A1, “Compositions and methods for rapid selection of pathogen binding agents” (priority 2009, published 2011).
Where a SMILES comes first, the peptide text is derived from it. Where no end group is shown, it is not given here.

Legend:
[1] = test system: E. coli O111:B4; test: LPS competition assay on random-sequence peptide microarray (binding of fluorescently labeled bacteria with and without excess free LPS); conditions: fluorescent intensity of SYTO 9 labeled E. coli O111:B4 binding to the arrayed peptide without vs with excess non-labeled LPS of the same strain
Experimental: FIG. 2. Schematic representation of the bacterial binding assay. PEG3,400 linker modified random sequence peptide microarrays were incubated (FIG. 2A) with fluorescently labeled bacteria and (FIG. 2B) with bacteria in presence of excess free LPS.
Microarray screening. Aliquots of the bacterial cultures were centrifuged to isolate the cells and were washed twice with an equal volume of PBS buffer (pH 7.2). After each wash, bacteria were resuspended and centrifuged. Cells were fluorescently stained with SYTO 9 green-fluorescent cell-permeable nucleic acid dye (Molecular Probes, Eugene, Oreg.). Dye was added to a 500 microliter suspension of bacteria at a concentration of 20 μM in PBS buffer and shaken for 1 hr at 37 degrees Centigrade. After incubation, the cell suspension was centrifuged, isolated, and washed twice with 1 ml PBS buffer. […] Each array was equipped with an Agilent hybridization chamber, and then 450 microliter solution of E. coli in PBS buffer supplemented with 0.03% FBS was added. The arrays were gently shaken on a platform for 1 hr at 37 degrees Centigrade temperature. After incubation, the hybridization chamber was removed, and unbound cells were washed away from the array by dipping it into a 50 ml solution of the hybridization buffer. This step was repeated twice, and the buffer was changed between washings. A final wash with nanopure water was used to remove salts from the array. Slides were then briefly centrifuged at 1500 rpm for 2 min to dry the arrays.
Data analysis. The arrays were scanned using a laser scanner (PERKIN-ELMER PROSCANARRAY HT) and quantified using GENEPIX PRO6.0 (Molecular Devices, Inc.) in order to determine the fluorescence intensity of each probe and identify its corresponding peptide sequence. A statistical comparison of microarray data was done with GENESPRING GX 7.3 (AGILENT, INC, Palo Alto, Calif., USA) by importing the image-processed data from GENEPIX PRO6.0. Median signal intensities were used in the calculations. For statistical comparisons, each slide was normalized to 50th percentile. Also, measurements of less than 0.01 were set to 0.01. Results were represented on a heatmap in order to be able to compare the difference in intensities with and without excess LPS.
LPS competition assay. Since approximately 90% of bacterial surface is comprised of LPS it was expected that bacteria will bind to random peptide microarray mostly through LPS. […] Same number of cells stained with SYTO-9® was used to probe the microarrays with and without excess non-labeled LPS from the same strain (FIG. 2).

[2] = Serum stability (serum incubation and western blot); type: in vitro ADME, human; conditions: for Degradation in human serum, monomeric peptide vs tetravalent PEG scaffold: western blot probed with Streptavidin-AlexaFluor 647 (FIG. 7)
Experimental: Serum stability of Construct 1. Over the last decade, there was a considerable interest in developing antimicrobial peptides as intravenously administered antibiotics. In this respect, a common criticism of peptide-based drugs has been their susceptibility to endogenous proteases. […] To test the in vitro stability of Construct 1 we used a serum-incubation and western blot analysis. Construct 1 was incubated in fresh human serum at 37° C. and pH=7.4 with a starting concentration of 10 μM. Samples were withdrawn at predetermined time points and each sample diluted 20-fold with loading buffer prior to analysis by western blot (FIG. 7).

[3] = test system: E. coli O111:B4; test: In vitro growth inhibition assay (turbidity at 600 nm); type: cell-based; conditions: added at mid-logarithmic phase, QF8 at 25 micrometers, NEG-1 at 100 micrometers, Construct 1 at 7, 10, and 25 micrometers, vs untreated bacteria
Experimental: FIG. 6. Bacterial growth inhibition assays in presence of (a) growth media; (b) negative control peptide NEG1 at 100 micromolar; (c) 25 micromolar peptide QF8 (SEQ ID NO: 33 Table 2); (d) 7 micrommolar QF8-PEG Construct 1; (e) 10 micromolar QF8-PEG Construct 1; (f) 17.5 micromolar QF8-PEG construct 1; (g) 25 micromolar QF8-PEG Construct 1; (h) 100 IU penicillin/streptomycin as a positive control.
In vitro growth inhibition assays. Growth of E. coli O111:B4 was assessed in the presence of different concentrations of NEG-1, QF8, and Construct 1 using turbidity at 600 nm. […]
In vitro inhibition assays. […] Growth was monitored as turbidity at 600 nm. Experiments were performed at 30 degrees Centigrade in microtiter plates with 100 microliters of culture using a Spectra Max Plus microtiter plate reader with Soft Max Pro Software (Molecular devices). The turbidity was measured every 5 minutes and the plate was shaken for 30 seconds before each measurement. Bacteria concentration was calculated according to the McFarland general method using the absorbance at 600 nm of a series of mixtures of 1% barium chloride and 1% sulfuric acid.

[4] = test system: LPS; conditions: Morales et al., 2009; cited from earlier work

1 (WWRRKKWHKHKRKHPRFGSC) [compound 1]
Ratio ECO/(ECO + LPS) [1]: 18.76

2 (HWKRRHKHKWPKRHPHKGSC) [compound 2]
Ratio ECO/(ECO + LPS) [1]: 13.22

3 (HWKRHHRPKHKHHRHKHGSC) [compound 3]
Ratio ECO/(ECO + LPS) [1]: 11.48

4 (HFHHWKWKHHHHRHRRFGSC) [compound 4]
Ratio ECO/(ECO + LPS) [1]: 11.28

5 (WKKKRKHRHKKHWHPWRGSC) [compound 5]
Ratio ECO/(ECO + LPS) [1]: 10.3

6 (RHWRKPRKWHKKWPPHRGSC) [compound 6]
Ratio ECO/(ECO + LPS) [1]: 9.881

7 (WKRPWHRWHPKRRKWRHGSC) [compound 7]
Ratio ECO/(ECO + LPS) [1]: 9.611

8 (WHHWFHHKKKKPWWKKKGSC) [compound 8]
Ratio ECO/(ECO + LPS) [1]: 8.832

9 (HFRKWHKRRWKHHKKWKGSC) [compound 9]
Ratio ECO/(ECO + LPS) [1]: 8.435

10 (HPWWWHHKKRRHHKHKKGSC) [compound 10]
Ratio ECO/(ECO + LPS) [1]: 5.345

11 (PWWKWRKRKHPKKHHKRGSC) [compound 11]
Ratio ECO/(ECO + LPS) [1]: 4.687

12 (WKWKRHWKWPHRRKHFFGSC) [compound 12]
Ratio ECO/(ECO + LPS) [1]: 4.576

13 (WHRKFFRWRFHRHKKHKGSC) [compound 13]
Ratio ECO/(ECO + LPS) [1]: 4.547

14 (HRKRPKRHHKRHWPRWKGSC) [compound 14]
Ratio ECO/(ECO + LPS) [1]: 4.429

15 (KKFHPHFKPWHFRHKKPGSC) [compound 15]
Ratio ECO/(ECO + LPS) [1]: 4.303

16 (KHPFWHPHRRHKKKRWFGSC) [compound 16]
Ratio ECO/(ECO + LPS) [1]: 4.283

17 (WHHKWRFWKHFRHKRHFGSC) [compound 17]
Ratio ECO/(ECO + LPS) [1]: 4.216

18 (SIADIHKRKFRVRRKHIGSC) [compound 18]
Ratio ECO/(ECO + LPS) [1]: 4.04

19 (PWKFHRHWHHHKHWKWKGSC) [compound 19]
Ratio ECO/(ECO + LPS) [1]: 3.644

20 (HHWWRKRRRKRHRKHWKGSC) [compound 20]
Ratio ECO/(ECO + LPS) [1]: 3.527

21 (RWQKKVKMKRDHVYFRMGSC) [compound 21]
Ratio ECO/(ECO + LPS) [1]: 3.526

22 (RWFPKKHHHRWRKWWKKGSC) [compound 22]
Ratio ECO/(ECO + LPS) [1]: 3.506

23 (HHHHKRKHFWRPRHPRKGSC) [compound 23]
Ratio ECO/(ECO + LPS) [1]: 3.493

24 (HKRHKKHFKFFRWHRKWGSC) [compound 24]
Ratio ECO/(ECO + LPS) [1]: 3.428

25 (TKRIHKWPQDAYRIRRGGSC) [compound 25]
Ratio ECO/(ECO + LPS) [1]: 3.355

26 (RTYWNYGIMRHNKTRKGGSC) [compound 26]
Ratio ECO/(ECO + LPS) [1]: 3.331

27 (WHWHHWKHKKRRHHWRRGSC) [compound 27]
Ratio ECO/(ECO + LPS) [1]: 3.261

28 (KHWHWHKRKKHHRKFFWGSC) [compound 28]
Ratio ECO/(ECO + LPS) [1]: 3.0313

29 (RKHHKKPHKRKRWKWWPGSC) [compound 29]
Ratio ECO/(ECO + LPS) [1]: 3.021

30 (RFHWKHRRKWKHHHPRRGSC) [compound 30]
Ratio ECO/(ECO + LPS) [1]: 2.944

31 (HWHHRWWHHWKHPHHWRGSC) [compound 31]
Ratio ECO/(ECO + LPS) [1]: 2.854

32 (WKFRHRHHRHHWHKKWKGSC) [compound 32]
Ratio ECO/(ECO + LPS) [1]: 2.844

33 (HRKPKFRHHHFKWKHWKGSC) [compound 33]
Ratio ECO/(ECO + LPS) [1]: 2.786

34 (RRWWRKRFWHHRWHRRKGSC) [compound 34]
Ratio ECO/(ECO + LPS) [1]: 2.423

35 (HRWWFKKKHRFRWWKRWGSC) [compound 35]
Ratio ECO/(ECO + LPS) [1]: 2.404

36 (RFFFHKWRRWRRRKPPRGSC) [compound 36]
Ratio ECO/(ECO + LPS) [1]: 2.378

37 (RWRRHKHFKRPHRKHKRGSC) [compound 37]
Ratio ECO/(ECO + LPS) [1]: 2.375

38 (WWHHKWFKHKKFWRHKFGSC) [compound 38]
Ratio ECO/(ECO + LPS) [1]: 2.349

39 (WKPWFHPRKHHKWRHWHGSC) [compound 39]
Ratio ECO/(ECO + LPS) [1]: 2.334

40 (KHKWWRWHKWHWWFRKHGSC) [compound 40]
Ratio ECO/(ECO + LPS) [1]: 2.322

41 (KWKHHKKFRKRKRHWFHGSC) [compound 41]
Ratio ECO/(ECO + LPS) [1]: 2.316

42 (HWHPRWHKHKFKHWRWHGSC) [compound 42]
Ratio ECO/(ECO + LPS) [1]: 2.273

43 (WRFKHFRWKRFKHHHKKGSC) [compound 43]
Ratio ECO/(ECO + LPS) [1]: 2.263

44 (IYNKRSQVRRKGFKKKYGSC) [compound 44]
Ratio ECO/(ECO + LPS) [1]: 2.169

45 (RKRKWHHPWHWRRKRRWGSC) [compound 45]
Ratio ECO/(ECO + LPS) [1]: 2.136

46 (RHWRPKFRKFRWWRWHHGSC) [compound 46]
Ratio ECO/(ECO + LPS) [1]: 2.125

47 (FHKKRHFKRRHKFWWWRGSC) [compound 47]
Ratio ECO/(ECO + LPS) [1]: 2.114

48 (HKWHRKKFHKHRFKHHKGSC) [compound 48]
Ratio ECO/(ECO + LPS) [1]: 2.112

49 (WFWKHKKWRRHPRKWHWGSC) [compound 49]
Ratio ECO/(ECO + LPS) [1]: 2.104

50 (EPKLWFKPRRGGYRHRHGSC) [compound 50]
Ratio ECO/(ECO + LPS) [1]: 2.035

51 (HRKWHWPWKWPWKRKRWGSC) [compound 51]
Ratio ECO/(ECO + LPS) [1]: 2.033

52 (RPKPHRHWKPKFPHHHWGSC) [compound 52]
Ratio ECO/(ECO + LPS) [1]: 2.031

53 (WRRSTPVGPWTWFGKFLGSC) [compound 53]
Ratio ECO/(ECO + LPS) [1]: 1.974

54 (RRFRHWWRWRKRRRKWRGSC) [compound 54]
Ratio ECO/(ECO + LPS) [1]: 1.914

N=C(N)NCCC[C@H](NC(=O)[C@H](Cc1ccccc1)NC(=O)[C@H](CCCCN)NC(=O)[C@@H]1CCCN1C(=O)[C@H](CCCCN)NC(=O)[C@H](CCCNC(=N)N)NC(=O)[C@@H](N)Cc1c[nH]cn1)C(=O)N[C@@H](Cc1c[nH]cn1)C(=O)N[C@@H](Cc1c[nH]cn1)C(=O)N[C@@H](Cc1c[nH]cn1)C(=O)N[C@@H](Cc1ccccc1)C(=O)N[C@@H](CCCCN)C(=O)N[C@@H](Cc1c[nH]c2ccccc12)C(=O)N[C@@H](CCCCN)C(=O)N[C@@H](Cc1c[nH]cn1)C(=O)N[C@@H](Cc1c[nH]c2ccccc12)C(=O)N[C@@H](CCCCN)C(=O)NCC(=O)N[C@@H](CO)C(=O)N[C@@H](CS)C(=O)O [SEQ ID NO: 33] (H-HRKPKFRHHHFKWKHWKGSC-OH; N-terminus and C-terminus assumed)
Degradation in human serum, monomeric peptide vs tetravalent PEG scaffold [2]: degraded much faster

Construct 1: tetravalent mPEG-maleimide (MW 20 kDa) conjugated with QF8 peptide (HRKPKFRHHHFKWKHWKGSC; also: conjugated with tetravalent 20 kDa mPEG-maleimide)
Growth of E. coli O111:B4 (growth curves, bacterial count) [3]: dramatic decrease in bacterial count
Time for which proteolysis was resisted ([2]; fresh human serum, 37° C., pH=7.4, starting concentration 10 μM, western blot): more than 8 hours
Degradation in human serum, monomeric peptide vs tetravalent PEG scaffold [2]: prolonged the half-life

EFSNPTAQVFPDFWMSDGSC [NEG-1, negative control peptide, reference compound]
Growth of E. coli O111:B4 (growth curves, bacterial count) [3]: no changes
Binding to the bacteria and to LPS [4]: bind neither to the bacteria nor to LPS
